PubChem BioAssay AID1963435 (Molecular Pharmacology Branch, DTP, NCI, 2024)
“And” between values parts separate entries of the source, which are not always exact repeats. Equal entries are not always repeated. Values belong to the compound of their own block, whether it stands above or below them.

System: PANC-1 complex spheroid growth, percent test/control
Experiment: Anticancer human tumor PANC-1 cell line growth inhibition [Asc];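 note: spheroids exposed to agents for 7 days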;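 for viability, T/C: percent viability relative to DMSO vehicle wells taken as 100%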
Details: for viability, T/C: stronger effect = lower value
Method in brief: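 Tumor cells were grown as complex spheroids with human endothelial cells (HUVEC) and human mesenchymal stem cells as stroma. Agents were tested alone and in combination, in half-log steps down from the clinical Cmax, or from 10 microM where Cmax was unknown.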

[1] = curve of first compound, second compound 0.00949 µM
[2] = curve of first compound, second compound 0.03 µM
[3] = curve of first compound, second compound 0.0949 µM
[4] = curve of first compound, second compound 0.3 µM
[5] = curve of first compound, second compound 0.949 µM
[6] = curve of first compound, second compound 3 µM
[7] = second compound 0.00949 µM, first compound 0.0316 µM
[8] = second compound 0.00949 µM, first compound 0.1 µM
[9] = second compound 0.00949 µM, first compound 0.316 µM
[10] = second compound 0.00949 µM, first compound 1 µM
[11] = second compound 0.00949 µM, first compound 3.16 µM
[12] = second compound 0.00949 µM, first compound 10 µM
[13] = second compound 0.03 µM, first compound 0.0316 µM
[14] = second compound 0.03 µM, first compound 0.1 µM
[15] = second compound 0.03 µM, first compound 0.316 µM
[16] = second compound 0.03 µM, first compound 1 µM
[17] = second compound 0.03 µM, first compound 3.16 µM
[18] = second compound 0.03 µM, first compound 10 µM
[19] = second compound 0.0949 µM, first compound 0.0316 µM
[20] = second compound 0.0949 µM, first compound 0.1 µM
[21] = second compound 0.0949 µM, first compound 0.316 µM
[22] = second compound 0.0949 µM, first compound 1 µM
[23] = second compound 0.0949 µM, first compound 3.16 µM
[24] = second compound 0.0949 µM, first compound 10 µM
[25] = second compound 0.3 µM, first compound 0.0316 µM
[26] = second compound 0.3 µM, first compound 0.1 µM
[27] = second compound 0.3 µM, first compound 0.316 µM
[28] = second compound 0.3 µM, first compound 1 µM
[29] = second compound 0.3 µM, first compound 3.16 µM
[30] = second compound 0.3 µM, first compound 10 µM
[31] = second compound 0.949 µM, first compound 0.0316 µM
[32] = second compound 0.949 µM, first compound 0.1 µM
[33] = second compound 0.949 µM, first compound 0.316 µM
[34] = second compound 0.949 µM, first compound 1 µM
[35] = second compound 0.949 µM, first compound 3.16 µM
[36] = second compound 0.949 µM, first compound 10 µM
[37] = second compound 3 µM, first compound 0.0316 µM
[38] = second compound 3 µM, first compound 0.1 µM
[39] = second compound 3 µM, first compound 0.316 µM
[40] = second compound 3 µM, first compound 1 µM
[41] = second compound 3 µM, first compound 3.16 µM
[42] = second compound 3 µM, first compound 10 µM

Structure (SMILES): CCN1C(C(=O)NC23CCC(C(=O)O)(CC2)CC3)C(c2cccc(Cl)c2F)C2(C(=O)Nc3cc(Cl)ccc32)C12CCCCC2 (stereo unspecified)
viability, T/C (compound 0.00949 µM): 103% [middle of 9 runs]
viability, T/C (compound 0.03 µM): 102% [middle of 9 runs]
viability, T/C (compound 0.0949 µM): 103% [middle of 9 runs]
viability, T/C (compound 0.3 µM): 100% [middle of 9 runs]
viability, T/C (compound 0.949 µM): 103% [middle of 9 runs]
viability, T/C (compound 3 µM): 112% [middle of 9 runs]
IC50 (compound alone, run of 11/07/2022): > 3 µM
IC50 (curve of compound): > 3 µM

Structure (SMILES): Cn1ncnc1[C@H]1c2n[nH]c(=O)c3cc(F)cc(c23)N[C@@H]1c1ccc(F)cc1 + CCN1C(C(=O)NC23CCC(C(=O)O)(CC2)CC3)C(c2cccc(Cl)c2F)C2(C(=O)Nc3cc(Cl)ccc32)C12CCCCC2
IC50 [1]: > 0.1 µM
IC50 [2]: > 0.1 µM
IC50 [3]: > 0.1 µM
IC50 [4]: > 0.1 µM
IC50 [5]: > 0.1 µM
IC50 [6]: > 0.1 µM
viability, T/C (second compound 0.00949 µM, first compound 0.000316 µM): 101%
viability, T/C (second compound 0.00949 µM, first compound 0.001 µM): 89.6%
viability, T/C (second compound 0.00949 µM, first compound 0.00316 µM): 97.4%
viability, T/C (second compound 0.00949 µM, first compound 0.01 µM): 96.7%
viability, T/C [7]: 111%
viability, T/C [8]: 113%
viability, T/C (second compound 0.03 µM, first compound 0.000316 µM): 107%
viability, T/C (second compound 0.03 µM, first compound 0.001 µM): 89.5%
viability, T/C (second compound 0.03 µM, first compound 0.00316 µM): 98.4%
viability, T/C (second compound 0.03 µM, first compound 0.01 µM): 98.9%
viability, T/C [13]: 109%
viability, T/C [14]: 101%
viability, T/C (second compound 0.0949 µM, first compound 0.000316 µM): 93.4%
viability, T/C (second compound 0.0949 µM, first compound 0.001 µM): 98.1%
viability, T/C (second compound 0.0949 µM, first compound 0.00316 µM): 103%
viability, T/C (second compound 0.0949 µM, first compound 0.01 µM): 94.2%
viability, T/C [19]: 108%
viability, T/C [20]: 102%
viability, T/C (second compound 0.3 µM, first compound 0.000316 µM): 98.8%
viability, T/C (second compound 0.3 µM, first compound 0.001 µM): 96.2%
viability, T/C (second compound 0.3 µM, first compound 0.00316 µM): 109%
viability, T/C (second compound 0.3 µM, first compound 0.01 µM): 101%
viability, T/C [25]: 110%
viability, T/C [26]: 106%
viability, T/C (second compound 0.949 µM, first compound 0.000316 µM): 111%
viability, T/C (second compound 0.949 µM, first compound 0.001 µM): 117%
viability, T/C (second compound 0.949 µM, first compound 0.00316 µM): 106%
viability, T/C (second compound 0.949 µM, first compound 0.01 µM): 107%
viability, T/C [31]: 105%
viability, T/C [32]: 114%
viability, T/C (second compound 3 µM, first compound 0.000316 µM): 109%
viability, T/C (second compound 3 µM, first compound 0.001 µM): 123%
viability, T/C (second compound 3 µM, first compound 0.00316 µM): 124%
viability, T/C (second compound 3 µM, first compound 0.01 µM): 116%
viability, T/C [37]: 125%
viability, T/C [38]: 106%

Now from value to compound, other results behind:

IC50 [1]: 7.22 µM
IC50 [2]: 6.88 µM
IC50 [3]: 6.94 µM
IC50 [4]: 7.25 µM
IC50 [5]: 7.02 µM
IC50 [6]: 7.78 µM
Structure (SMILES): C=C(F)C(=O)N1CCN(c2nc(OCC3CCCN3C)nc3c2CCN(c2cccc4cccc(Cl)c24)C3)CC1CC#N (stereo unspecified) + CCN1C(C(=O)NC23CCC(C(=O)O)(CC2)CC3)C(c2cccc(Cl)c2F)C2(C(=O)Nc3cc(Cl)ccc32)C12CCCCC2
viability, T/C [7]: 99%
viability, T/C [8]: 89.5%
viability, T/C [9]: 88.4%
viability, T/C [10]: 98.5%
viability, T/C [11]: 105%
viability, T/C [12]: 31.7%
viability, T/C [13]: 103%
viability, T/C [14]: 96.7%
viability, T/C [15]: 97%
viability, T/C [16]: 97.7%
viability, T/C [17]: 88%
viability, T/C [18]: 31.6%
viability, T/C [19]: 105%
viability, T/C [20]: 102%
viability, T/C [21]: 108%
viability, T/C [22]: 109%
viability, T/C [23]: 106%
viability, T/C [24]: 24.1%
viability, T/C [25]: 99.5%
viability, T/C [26]: 93.1%
viability, T/C [27]: 103%
viability, T/C [28]: 108%
viability, T/C [29]: 100%
viability, T/C [30]: 30.5%
viability, T/C [31]: 117%
viability, T/C [32]: 104%
viability, T/C [33]: 114%
viability, T/C [34]: 109%
viability, T/C [35]: 97.1%
viability, T/C [36]: 28.9%
viability, T/C [37]: 112%
viability, T/C [38]: 108%
viability, T/C [39]: 115%
viability, T/C [40]: 126%
viability, T/C [41]: 96.7%
viability, T/C [42]: 37%

IC50 [1]: > 10 µM
IC50 [2]: > 10 µM
IC50 [3]: > 10 µM
IC50 [4]: > 10 µM
IC50 [5]: > 10 µM
IC50 [6]: > 10 µM
Structure (SMILES): C=CC(=O)N1CCN(c2nc(=O)n(-c3c(C)ccnc3C(C)C)c3nc(-c4c(O)cccc4F)c(F)cc23)C(C)C1 (stereo unspecified) + CCN1C(C(=O)NC23CCC(C(=O)O)(CC2)CC3)C(c2cccc(Cl)c2F)C2(C(=O)Nc3cc(Cl)ccc32)C12CCCCC2
viability, T/C [7]: 98.1%
viability, T/C [8]: 96.8%
viability, T/C [9]: 86%
viability, T/C [10]: 98.8%
viability, T/C [11]: 90.4%
viability, T/C [12]: 96%
viability, T/C [13]: 101%
viability, T/C [14]: 92.5%
viability, T/C [15]: 100%
viability, T/C [16]: 103%
viability, T/C [17]: 97.8%
viability, T/C [18]: 77.5%
viability, T/C [19]: 111%
viability, T/C [20]: 101%
viability, T/C [21]: 97.5%
viability, T/C [22]: 94%
viability, T/C [23]: 95.6%
viability, T/C [24]: 91.2%
viability, T/C [25]: 109%
viability, T/C [26]: 95.3%
viability, T/C [27]: 106%
viability, T/C [28]: 110%
viability, T/C [29]: 93.6%
viability, T/C [30]: 93.2%
viability, T/C [31]: 116%
viability, T/C [32]: 107%
viability, T/C [33]: 96.4%
viability, T/C [34]: 103%
viability, T/C [35]: 94.7%
viability, T/C [36]: 93.1%
viability, T/C [37]: 120%
viability, T/C [38]: 115%
viability, T/C [39]: 114%
viability, T/C [40]: 121%
viability, T/C [41]: 109%
viability, T/C [42]: 102%

IC50 (curve of compound): > 10 µM
Structure (SMILES): O=C(c1cc(Cc2n[nH]c(=O)c3ccccc23)ccc1F)N1CCN(C(=O)C2CC2)CC1
viability, T/C (compound 0.0316 µM): 93.1% and 94.8% and 102%
viability, T/C (compound 0.1 µM): 92.7% and 90.1% and 94.9%
viability, T/C (compound 0.316 µM): 99.7% and 109% and 102%
viability, T/C (compound 1 µM): 101% and 112% and 116%
viability, T/C (compound 3.16 µM): 113% and 107% and 103%
viability, T/C (compound 10 µM): 101% and 95.9% and 103%
